Assay results taken from patent US20230278972A1, “SUBSTITUTED HALOALKYL SULFONANILIDE HERBICIDES” (FMC Corporation, priority 2020, published 2023).

Assays:
Format in all cases: in vivo
kochia (Bassia scoparia) = assay: Test A1 preemergence, kochia
Summary of the method: (§1)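 Both timings started from seed in a loam-sand blend. Preemergence pots got a directed soil application immediately; postemergence pots were sprayed when seedlings had one or two leaves and stood 2–10 cm. Each compound was prepared in a non-phytotoxic solvent plus surfactant.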

[1] = system: ragweed (common ragweed, Ambrosia artemisiifolia); assay: Test A1 preemergence, ragweed
Summary of the method: as §1

soybean (Glycine max) [2] = assay: Test A1 preemergence, soybean
Summary of the method: as §1

soybean (Glycine max) [3] = assay: Test A1 postemergence, soybean; conditions: for Soybean plant response rating: 31 g ai/ha, postemergence; for Plant response rating, Soybean: Postemergence
Summary of the method: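 Herbicidal response was scored on plants treated either preemergence, by directed spray onto soil of a loam–sand blend after sowing, or postemergence on potted plants at the one- to two-leaf stage, 2–10 cm high. Test chemicals were carried in a non-phytotoxic solvent mix with surfactant.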

[4] = system: barnyardgrass (Echinochloa crus-galli); assay: Test B1 flooded paddy test, barnyardgrass; conditions: 250 g ai/ha, Flood, applied to paddy water, 2-leaf stage, visually evaluated after 10 to 14 days
From the text: (§2) A dash (-) response means no test result.

rice (Oryza sativa) = assay: Test B1 flooded paddy test, rice; conditions: 250 g ai/ha, Flood, applied to paddy water, 2-leaf stage, visually evaluated after 10 to 14 days
From the text: as §2

[5] = 31 g ai/ha, 0 to 100 scale (0 no effect, 100 complete control)
[6] = 125 g ai/ha, 0 to 100 scale, 0 no effect, 100 complete control
[7] = 0 to 100 scale (0 no effect, 100 complete control)
[8] = 125 g ai/ha, 0 to 100 scale (0 no effect, 100 complete control), 10 days
[9] = 500 g ai/ha, 0 to 100 scale (0 no effect, 100 complete control)
[10] = 125 g ai/ha, 0 to 100 scale (0 no effect, 100 complete control)

SMILES | Plant response rating, Kochia (kochia (Bassia scoparia); [5]) | Plant response rating, Kochia (kochia (Bassia scoparia); [6]) | Plant response rating, Ragweed [1, 5] | Plant response rating, Ragweed [1, 6] | Plant response rating, Soybean (soybean (Glycine max) [2]; [5]) | Plant response rating, Soybean (soybean (Glycine max) [2]; [6]) | Soybean plant response rating (soybean (Glycine max) [3]; [7]) | Plant response rating, Soybean (soybean (Glycine max) [3]; 125 g ai/ha, 0 to 100 scale) | Plant response rating, Barnyardgrass (0 to 100 scale, 0 is no effect, 100 is complete control) [4] | Plant response rating, Rice (0 to 100 scale, 0 is no effect, 100 is complete control) (rice (Oryza sativa)) | Plant response rating, Soybean (soybean (Glycine max) [3]; [8]) | Plant response rating, Kochia (kochia (Bassia scoparia); [9]) | Plant response rating, Ragweed [1, 9] | Plant response rating, Soybean (soybean (Glycine max) [2]; [9]) | Plant response rating, Soybean (soybean (Glycine max) [3]; 500 g ai/ha, 0 to 100 scale) | Plant response rating, Kochia (kochia (Bassia scoparia); [10]) | Plant response rating, Ragweed [1, 10] | Plant response rating, Soybean (soybean (Glycine max) [2]; [10])
CCOC(=O)N(c1cc(C2=NOC3CCCC23)c(CC)cc1C)S(=O)(=O)C(F)(F)F (centres unmarked) [Compound 379] | 0 | 10 | 0 | 0 | 0 | 0 | 0 | 20 | 95 | 0 | – | – | – | – | – | – | – | –
Cc1c(NS(=O)(=O)C(F)(F)F)cc(C2=NOC3(CCCC3)C2)c(C)c1C [Compound 380] | 0 | 60 | 0 | 40 | 20 | 50 | 50 | – | 98 | 10 | 60 | – | – | – | – | – | – | –
Cc1c(C2=NOC3(CCCC3)C2)cc(N(COC(=O)C(C)(C)C)S(=O)(=O)C(F)(F)F)c(C)c1C [Compound 382] | 0 | 0 | 0 | 0 | 0 | 0 | 40 | – | 90 | 10 | 50 | – | – | – | – | – | – | –
Cc1cc(C)c(N2CC3(CCCCC3)CC2=O)cc1NS(=O)(=O)C(F)(F)F [Compound 392] | 20 | 20 | 0 | 0 | 0 | 0 | 50 | – | 0 | 0 | 60 | – | – | – | – | – | – | –
Cc1cc(Cl)c(NS(=O)(=O)C(F)(F)F)cc1N1CCC2(CCCCC2)C1=O [Compound 393] | 60 | 80 | 40 | 90 | 60 | 80 | 50 | – | 0 | 0 | 60 | – | – | – | – | – | – | –
Cc1cc(C)c(N(COC(=O)C(C)(C)C)S(=O)(=O)C(F)(F)F)cc1N1CCC2(CCC(F)(F)CC2)C1=O [Compound 397] | – | 90 | – | 90 | – | 40 | – | – | 90 | 0 | 50 | 100 | 90 | 80 | 60 | – | – | –
COC1CCC2(CC1)CCN(c1cc(NS(=O)(=O)C(F)(F)F)c(C)cc1C)C2=O (centres unmarked) [Compound 398] | 40 | 50 | 20 | 80 | 70 | 90 | 30 | – | 85 | 30 | 60 | – | – | – | – | – | – | –
Cc1cc(C)c(N(S(=O)(=O)C(F)(F)F)S(=O)(=O)C(F)(F)F)cc1N1CCC2(CCC(C(F)(F)F)CC2)C1=O (centres unmarked) [Compound 399] | 0 | 50 | 0 | 60 | 30 | 40 | 60 | – | 0 | 0 | 100 | – | – | – | – | – | – | –
Cc1cc(C)c(N2CCC3(CCC(C(F)(F)F)CC3)C2=O)cc1NS(=O)(=O)C(F)(F)F (centres unmarked) [Compound 400] | 0 | 20 | 70 | 90 | 50 | 50 | 50 | – | 20 | 25 | 60 | – | – | – | – | – | – | –
Cc1cc(C)c(N(COC(=O)C(C)(C)C)S(=O)(=O)C(F)(F)F)cc1N1CCC2(CCC(C)CC2)C1=O (centres unmarked) [Compound 401] | 0 | 0 | 0 | 10 | 0 | 0 | 60 | – | 98 | 45 | 70 | – | – | – | – | – | – | –
Cc1cc(C)c(N2CCC3(CCC(C)CC3)C2=O)cc1NS(=O)(=O)C(F)(F)F (centres unmarked) [Compound 402] | 0 | 30 | 20 | 50 | 10 | 80 | 60 | – | 0 | 0 | 80 | – | – | – | – | – | – | –
Cc1cc(C)c(N(COC(=O)C(C)(C)C)S(=O)(=O)C(F)(F)F)cc1N1CCC2(CCC(C(F)(F)F)CC2)C1=O (centres unmarked) [Compound 403] | 0 | 0 | 0 | 20 | 0 | 0 | 50 | – | 0 | 0 | 60 | – | – | – | – | – | – | –
Cc1cc(C)c(N2Cc3cccc(C)c3C2=O)cc1NS(=O)(=O)Cl [Compound 408] | 0 | – | – | – | – | – | 40 | – | 98 | 65 | 50 | – | – | – | – | 70 | 50 | 50
COc1cccc2c1C(=O)N(c1cc(N(COC(=O)C(C)(C)C)S(=O)(=O)Cl)c(C)cc1C)C2 [Compound 413] | 70 | – | – | – | – | – | 80 | – | 40 | 0 | 80 | – | – | – | – | 90 | 90 | 50
CCOc1cccc2c1C(=O)N(c1cc(N(COC(=O)C(C)(C)C)S(=O)(=O)Cl)c(C)cc1C)C2 [Compound 414] | 20 | – | – | – | – | – | 20 | – | 0 | 0 | 30 | – | – | – | – | 80 | 20 | 0
Cc1cc(C)c(N2Cc3cccc(Br)c3C2=O)cc1NS(=O)(=O)Cl [Compound 415] | 10 | – | – | – | – | – | 10 | – | 85 | 10 | 30 | – | – | – | – | 60 | 90 | 0
